{
  "source": "patent US8821836B2",
  "about": "“SPARC binding peptides and uses thereof” (Abraxis BioScience, LLC, priority 2008, dated 2014)",
  "key": {"[1]": {"test_system": "PC3 prostatecarcinoma xenograft", "assay": "Antitumor activity in PC3 xenograft model", "type": "in vivo, nude mouse", "conditions": "for tumor growth inhibition: FIG. 13", "description": "FIG. 13 depicts the antitumor activity of PD 15 and PD 21 in a human prostate cancer/nude mouse model system.\nThe PD 15 and PD 21-Fc fusion proteins were assayed for antitumor activity in a murine-human PC3 prostatecarcinoma xenograft model."}, "[2]": {"target": "T1, SPARC (Homo sapiens, UniProt P09486)", "T1 sequence (P09486 18-303)": "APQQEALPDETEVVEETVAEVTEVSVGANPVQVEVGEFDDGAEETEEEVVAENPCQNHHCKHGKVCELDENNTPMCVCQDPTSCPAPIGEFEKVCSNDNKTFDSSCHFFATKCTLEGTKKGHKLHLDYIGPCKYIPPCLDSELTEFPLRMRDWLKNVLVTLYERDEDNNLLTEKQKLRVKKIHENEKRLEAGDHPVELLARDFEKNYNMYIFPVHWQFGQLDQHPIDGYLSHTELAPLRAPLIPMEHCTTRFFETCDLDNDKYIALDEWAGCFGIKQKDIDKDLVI", "assay": "Concentration dependent binding ELISA", "conditions": "for binding to SPARC compared with anti-SPARC antibody: ELISA, FIG. 9"}, "[3]": {"test_system": "sections of a human brain tumor (SPARC expressing tumor)", "assay": "Immunohistochemical staining of tumor sections", "conditions": "IHC, FIGS. 10 and 11", "from_the_text": "FIGS. 10 and 11 show the co-localization of SPARC (as indicated by immunohistochemical (IHC) staining with an anti-SPARC antibody) and the binding of PD 15 and PD 21 in sections of a human brain tumor (which have been epitope tagged for IHC staining.)."}, "[4]": {"test_system": "non-SPARC proteins in 5,000 proteins on the array", "assay": "Protein microarray analysis (Invitrogen ProtoArray v.3), off target binding", "from_the_text": "FIG. 8 depicts the Protoarray used to define off target binding of PD 15 and PD21."}, "[5]": {"test_system": "HT29 colon xenograft", "assay": "Antitumor activity in HT29 xenograft model", "type": "in vivo, mouse", "conditions": "FIG. 14"}},
  "note": "“Also recorded” adds a separate entry of the source.",
  "data": [
    {"substance": "PD 15-Fc: fusion protein of SPARC binding peptide PD 15 with human IgG1 Fc domain (pFUSE-hIgG1-Fc2 vector) (YTRLHHWIPPQR)", "values": [
      {"measurement": "tumor growth inhibition", "setting": "[1]", "value": "statistically significant tumor growth inhibition"}
    ]},
    {"substance": "PD 21-Fc: fusion protein of SPARC binding peptide PD 21 with human IgG1 Fc domain (pFUSE-hIgG1-Fc2 vector) (VTPLLKFRALSS)", "values": [
      {"measurement": "tumor growth inhibition", "setting": "[1]", "value": "statistically significant tumor growth inhibition"}
    ]},
    {"substance": "VTPLLKFRALSS [PD 21]", "values": [
      {"measurement": "binding to SPARC compared with anti-SPARC antibody", "setting": "[2]", "value": "only slightly weaker than that of an anti-SPARC antibody"},
      {"measurement": "binding to / staining of tumor tissue", "setting": "[3]", "value": "binding"},
      {"measurement": "cross reactivity with non-SPARC proteins", "setting": "[4]", "value": "only minimal cross reactivity"},
      {"measurement": "antitumor activity, comparison", "setting": "[5]", "value": "better antitumor activity than PD 15; also recorded: activity closely equivalent to Abraxane"}
    ]},
    {"substance": "YTRLHHWIPPQR [PD 15]", "values": [
      {"measurement": "affinity for SPARC, PD 15 versus PD 21", "setting": "[2]; ELISA and IHC experiments", "value": "higher affinity for SPARC than PD 21"},
      {"measurement": "binding to SPARC compared with anti-SPARC antibody", "setting": "[2]", "value": "only slightly weaker than that of an anti-SPARC antibody"},
      {"measurement": "binding to / staining of tumor tissue", "setting": "[3]", "value": "binding"},
      {"measurement": "antitumor activity, comparison", "setting": "[1]", "value": "better antitumor activity than PD21"},
      {"measurement": "cross reactivity with non-SPARC proteins", "setting": "[4]", "value": "only minimal cross reactivity"}
    ]}
  ]
}
